Columns and labels:
[1] = system: Ube3a-YFP protein; assay: Western blot of Ube3a-YFP protein in cortical neurons; assay type: cell-based, mouse; conditions: 10 μM for 72 h
Protocol: (§1) Embryonic day 13.5 to 15.5 mice that encode the paternal Ube3a-YFP transgene or Ube3a^m−/p+ mice (i.e., AS model mice) were identified and primary cortical neuronal cultures were obtained and plated in 6 well plates. […] To assess Ube3a-YFP protein levels, 7.5 ug of total protein lysates from Ube3a-YFP neurons were separated by 8% SDS-polyacrylamide gel electrophoresis, proteins were transferred to nitrocellulose membranes and immunoblotting was performed using a rabbit anti-GFP antibody (Novus) and Alexa Fluor 680 goat anti-rabbit IgG (Invitrogen). Ube3a-YFP protein bands were visualized by a LiCOR system and to control for protein loading, Ube3a-YFP protein levels were normalized to actin level detected in each sample. To assess Ube3a protein level, immunoblotting was performed using rabbit anti-Ube3a antibody (Abeam) and Alexa Fluor 680 goat anti-rabbit IgG (Invitrogen).
(§2) E13.5-15.5 primary cortical neurons from Ube3a-YFP, Ube3a-deficient, or wild-type mice were plated in 6-well plates. At DIV7, neurons were treated with drug or 0.1% DMSO for 72 h, and then total protein lysates were obtained by lysis buffer (1% Triton X-100, 5 mM EDTA, 0.15M NaCl, 10 mM Tris-HCl, pH 7.5, phosphatase inhibitor cocktails 1, protease inhibitor cocktail). […] To control for protein loading, UBE3A-YFP or UBE3A protein levels were normalized to actin levels detected in each sample.

[2] = system: UBE3A protein; assay: Western blot of endogenous UBE3A protein in Ube3a m-/p+ cortical neurons; assay type: cell-based, mouse; conditions: 300 nM, 72 h
Protocol: as §1, §2

SMILES	paternal Ube3a-YFP protein level (immunoblot) [1]	UBE3A protein level in neurons from Ube3a m−/p+ mice [2]
CCc1c2c(nc3ccc(OC(=O)N4CCC(N5CCCCC5)CC4)cc13)-c1cc3c(c(=O)n1C2)COC(=O)[C@]3(O)CC [Irinotecan]	significantly increases paternal Ube3a-YFP protein levels	
CC[C@@]1(O)C(=O)OCc2c1cc1n(c2=O)Cc2cc3c(CN(C)C)c(O)ccc3nc2-1 [Topotecan]		restored UBE3A protein to wild-type levels
